Experimental data from ChEMBL document CHEMBL5154808, “Novel β-Hairpin Antimicrobial Peptides Containing the β-Turn Sequence of -RRRF- Having High Cell Selectivity and Low Incidence of Drug Resistance” (J Med Chem, 2022).
Values after ≈ are worked out from the molar mass of the structure shown. Active and inactive are the calls of the source. The calls are words filed in the database; no cut-off is given here. Where a SMILES comes first, the peptide text is derived from it.

Columns and labels:
[1] = system: Enterococcus faecalis; assay: Antimicrobial activity against Enterococcus faecalis ATCC 29212 assessed as reduction of bacterial growth incubated for 18 hrs by CLSI protocol based broth microdilution method; assay type: functional
[2] = system: Staphylococcus epidermidis; assay: Antimicrobial activity against Staphylococcus epidermidis ATCC 12228 assessed as reduction of bacterial growth incubated for 18 hrs by CLSI protocol based broth microdilution method; assay type: functional
[3] = system: Escherichia coli; assay: Antimicrobial activity against Escherichia coli ATCC 25922 assessed as reduction of bacterial growth incubated for 18 hrs by CLSI protocol based broth microdilution method; assay type: functional
[4] = system: Klebsiella pneumoniae; assay: Antimicrobial activity against Klebsiella pneumoniae ATCC 700603 assessed as reduction of bacterial growth incubated for 18 hrs by CLSI protocol based broth microdilution method; assay type: functional
[5] = system: Staphylococcus aureus; assay: Antimicrobial activity against Staphylococcus aureus ATCC 25923 assessed as reduction of bacterial growth incubated for 18 hrs by CLSI protocol based broth microdilution method; assay type: functional
[6] = system: Pseudomonas aeruginosa; assay: Antimicrobial activity against Pseudomonas aeruginosa ATCC 27853 assessed as reduction of bacterial growth incubated for 18 hrs by CLSI protocol based broth microdilution method; assay type: functional
[7] = Cytotoxicity against human HK-2 cells assessed as reduction in cell viability incubated for 1 hr by resazurin based microplate reader method; assay type: toxicity
[8] = system: Bacillus subtilis; assay: Antimicrobial activity against Bacillus subtilis ATCC 23857 assessed as reduction of bacterial growth incubated for 18 hrs by CLSI protocol based broth microdilution method; assay type: functional
[9] = system: Erythrocyte; assay: Hemolytic activity in mouse red blood cells assessed as release of hemoglobin incubated for 1 hr by microplate reader method; assay type: toxicity, cell-based
[10] = system: Escherichia coli; assay: Induction of drug resistance in Escherichia coli ATCC 25922 assessed as increase in MIC measured after 20 passages by CLSI protocol based broth microdilution method; assay type: functional; settings: time 18.0 hrs
[11] = system: Staphylococcus aureus; assay: Induction of drug resistance in Staphylococcus aureus ATCC 25923 assessed as fold increase in MIC after 5 passages by CLSI protocol based broth microdilution method; assay type: functional; settings: time 18.0 hrs
[12] = system: Staphylococcus aureus; assay: Antimicrobial activity against kanamycin-resistant Staphylococcus aureus ATCC 25923; assay type: functional
[13] = system: Escherichia coli; assay: Antimicrobial activity against kanamycin-resistant Escherichia coli ATCC 25922; assay type: functional
[14] = system: Staphylococcus aureus; assay: Induction of drug resistance in Staphylococcus aureus ATCC 25923 assessed as increase in MIC after 10 passages by CLSI protocol based broth microdilution method; assay type: functional

| Compound | MIC [1] [µM] | MIC [2] [µM] | MIC [3] [µM] | MIC [4] [µM] | MIC [5] [µM] | MIC [6] [µM] | CC50 at 1 h [7] [µM] | MIC [8] [µM] | HC10 [9] [µM] | Activity [10] | fold change (FC) [11] | MIC [12] [µM] | MIC [13] [µM] | Activity [14] |
| --- | --- | --- | --- | --- | --- | --- | --- | --- | --- | --- | --- | --- | --- | --- |
| CC[C@H](C)[C@H](N)C(=O)N[C@@H](CCCNC(=N)N)C(=O)N[C@H](C(=O)N[C@@H](CCCNC(=N)N)C(=O)N[C@@H](CS)C(=O)N[C@@H](CCCNC(=N)N)C(=O)N[C@@H](CCCNC(=N)N)C(=O)N[C@@H](CCCNC(=N)N)C(=O)N[C@@H](Cc1ccccc1)C(=O)N[C@@H](CS)C(=O)N[C@@H](CCCNC(=N)N)C(=O)N[C@H](C(=O)N[C@@H](CCCNC(=N)N)C(=O)N[C@H](C(N)=O)[C@@H](C)CC)[C@@H](C)CC)[C@@H](C)CC (H-IRIRCRRRFCRIRI-NH2) | 16 (≈ 30.7 µg/mL) | 4 (≈ 7.67 µg/mL) | 8 (≈ 15.3 µg/mL) | 8 (≈ 15.3 µg/mL) | 8 (≈ 15.3 µg/mL) | 4 (≈ 7.67 µg/mL) | 37.1 | 4 (≈ 7.67 µg/mL) | > 256 |  |  |  |  |  |
| CC(C)C[C@H](NC(=O)[C@H](CCCNC(=N)N)NC(=O)CNC(=O)CNC(=O)[C@@H](N)CCCNC(=N)N)C(=O)N[C@@H](CS)C(=O)N[C@@H](Cc1ccc(O)cc1)C(=O)N[C@@H](CS)C(=O)N[C@@H](CCCNC(=N)N)C(=O)N[C@@H](CCCNC(=N)N)C(=O)N[C@@H](CCCNC(=N)N)C(=O)N[C@@H](Cc1ccccc1)C(=O)N[C@@H](CS)C(=O)N[C@H](C(=O)N[C@@H](CS)C(=O)N[C@H](C(=O)NCC(=O)N[C@@H](CCCNC(=N)N)C(N)=O)C(C)C)C(C)C (H-RGGRLCYCRRRFCVCVGR-NH2) | 8 (≈ 17.3 µg/mL) | 4 (≈ 8.64 µg/mL) | 8 (≈ 17.3 µg/mL) | 8 (≈ 17.3 µg/mL) | 8 (≈ 17.3 µg/mL) | 4 (≈ 8.64 µg/mL) | 14.2 | 2 (≈ 4.32 µg/mL) | 20 |  |  |  |  |  |
| NC[C@H]1O[C@H](O[C@H]2[C@H](O)[C@@H](O[C@H]3O[C@H](CO)[C@@H](O)[C@H](N)[C@H]3O)[C@H](N)C[C@@H]2N)[C@H](O)[C@@H](O)[C@@H]1O [KANAMYCIN] | 16 (≈ 7.75 µg/mL) | > 128 | 4 (≈ 1.94 µg/mL) | 64 (≈ 31 µg/mL) | < 1 | > 128 |  | < 1 |  | Active | 64 | 1020 (≈ 496 µg/mL) | 1020 (≈ 496 µg/mL) |  |
| CC[C@H](C)[C@H](NC(=O)CN)C(=O)NCC(=O)N[C@@H](C)C(=O)N[C@H](C(=O)N[C@@H](CC(C)C)C(=O)N[C@@H](CCCCN)C(=O)N[C@H](C(=O)N[C@@H](CC(C)C)C(=O)N[C@H](C(=O)N[C@H](C(=O)NCC(=O)N[C@@H](CC(C)C)C(=O)N1CCC[C@H]1C(=O)N[C@@H](C)C(=O)N[C@@H](CC(C)C)C(=O)N[C@H](C(=O)N[C@@H](CO)C(=O)N[C@@H](Cc1c[nH]c2ccccc12)C(=O)N[C@H](C(=O)N[C@@H](CCCCN)C(=O)N[C@@H](CCCNC(=N)N)C(=O)N[C@@H](CCCCN)C(=O)N[C@@H](CCCNC(=N)N)C(=O)N[C@@H](CCC(N)=O)C(=O)N[C@@H](CCC(N)=O)C(N)=O)[C@@H](C)CC)[C@@H](C)CC)[C@@H](C)O)[C@@H](C)O)C(C)C)C(C)C [MELITTIN] | 2 (≈ 5.69 µg/mL) |  |  | 16 (≈ 45.5 µg/mL) |  |  |  |  |  |  |  |  |  |  |
| C[C@@H](O)[C@H]1C(=O)N2C(C(=O)O)=C(S[C@@H]3CN[C@H](C(=O)N(C)C)C3)[C@H](C)[C@H]12 [MEROPENEM] | 16 (≈ 6.14 µg/mL) | < 1 | < 1 | < 1 | < 1 | 2 (≈ 0.767 µg/mL) |  | < 1 |  | Active |  |  |  | Active |
| CO[C@H]1/C=C/O[C@@]2(C)Oc3c(C)c(O)c4c(O)c(c(/C=N/N5CCN(C)CC5)c(O)c4c3C2=O)NC(=O)/C(C)=C\C=C\[C@H](C)[C@H](O)[C@@H](C)[C@@H](O)[C@@H](C)[C@H](OC(C)=O)[C@@H]1C [RIFAMPIN] | < 1 | < 1 | 4 (≈ 3.29 µg/mL) | 32 (≈ 26.3 µg/mL) | < 1 | 32 (≈ 26.3 µg/mL) |  | < 1 |  | Active | 64 |  |  |  |
| H-ARARRRRFRARA-NH2 | > 128 | 128 | > 128 | > 128 | 128 | > 128 | > 128 | 64 | > 256 |  |  |  |  |  |
| H-FRFRFRRRRFRFRFRF-NH2 | 8 | 2 | 8 | 8 | 8 | 8 | 10.3 | 4 | > 256 |  |  |  |  |  |
| H-FRFRRRRFRFRF-NH2 | 16 | 4 | 8 | 8 | 4 | 8 | 42 | 2 | 237 |  |  |  |  |  |
| H-IKIKRRRFKIKI-NH2 | 64 | 8 | 64 | 64 | 32 | 16 | > 128 | 4 | > 256 |  |  |  |  |  |
| H-IRIRIRRRRFRIRIRI-NH2 | 4 | 2 | 8 | 8 | 8 | 4 | 12.3 | 2 | 56 |  |  |  |  |  |
| H-IRIRRRRFRIRI-NH2 | 16 | 4 | 16 | 16 | 4 | 4 | 128 | 4 | > 256 |  |  |  |  |  |
| H-LKLKRRRFKLKL-NH2 | 128 | 8 | 32 | 128 | 32 | 64 | > 128 | 4 | > 256 |  |  |  |  |  |
| H-RIRIRRRFIRIR-NH2 | 32 | 4 | 8 | 64 | 8 | 16 | > 128 | 4 | > 256 |  |  |  |  |  |
| H-VRVRRRRFRVRV-NH2 | > 128 | 8 | 32 | 64 | 16 | 64 | > 128 | 4 | > 256 |  |  |  |  |  |
| H-WKWKRRRFKWKW-NH2 | 16 | 4 | 4 | 8 | 4 | 4 | 120 | 2 | > 256 |  |  |  |  |  |
| H-WKWKWKRRRFKWKWKW-NH2 | 8 | 4 | 8 | 8 | 8 | 4 | 10.4 | 4 | > 256 |  |  |  |  |  |
| H-WRWRRRRFRWRW-NH2 | 8 | 4 | 8 | 8 | 8 | 8 | 8.7 | 2 | > 256 |  |  |  |  |  |
